Values of other authors, collected in patent publication US10028927B2, “Topical pharmaceutical formulation” (Futura Medical Developments Limited, priority 2015, dated 2018).
Structures can show the parent of a compound that is named as a salt.

Key:
[1] = saturated systems in polyethylene glycol and propylene glycol
[2] = in vivo

O=C(O)Cc1ccccc1Nc1c(Cl)cccc1Cl [diclofenac acid]
diclofenac flux, polyethylene glycol versus propylene glycol systems [1]: no significant difference | saturated solubility in polyethylene glycol (polyethylene glycol): 11.18 % w/w | saturated solubilities in propanol or iso-propanol (propanol or iso-propanol): 3-4% | saturated solubility in pure ethanol (pure ethanol): 5 % w/w

O=C(O)Cc1ccccc1Nc1c(Cl)cccc1Cl [diclofenac]
systemic clearance compared with other drugs [2]: more rapid systemic clearance compared with other drugs

O=C(O)Cc1ccccc1Nc1c(Cl)cccc1Cl [sodium salt of diclofenac acid, diclofenac sodium]
saturated solubility in propylene glycol (propylene glycol): approximately 50 % w/w
